Measured values: PMC8401035, “Synthesis and In Vitro Characterization of Glycopeptide Drug Candidates Related to PACAP1–23” (Molecules, 2021)
Read-outs that look alike come from different tables or passages of the source. Non-standard residues stand in square brackets, D forms with d. Residues, ends and D or L forms follow the SMILES beside them. *: point of attachment. X1 = OC[C@H]1O[C@@H](O[C@H]2[C@H](O)[C@@H](O)[C@H](*)O[C@@H]2CO)[C@H](O)[C@@H](O)[C@H]1O; Nva = CCC[C@H](N)C(=O)O; Sar = CNCC(=O)O

What was measured:
human PAC1 = target: T1, human PAC1 (Homo sapiens, UniProt P41586); test: cAMP accumulation assay in PAC1-CHO cells; type: cell-based; conditions: for EC50: cAMP stimulation, CHO cells stably expressing human PAC1, 500 μM IBMX, 10 min agonist at 37 °C, 3H-cAMP/PKA competition read-out, Table 3, control has two values (two experiments)
T1 construct: 3xHA (N)
T1 sequence (P41586 21-468): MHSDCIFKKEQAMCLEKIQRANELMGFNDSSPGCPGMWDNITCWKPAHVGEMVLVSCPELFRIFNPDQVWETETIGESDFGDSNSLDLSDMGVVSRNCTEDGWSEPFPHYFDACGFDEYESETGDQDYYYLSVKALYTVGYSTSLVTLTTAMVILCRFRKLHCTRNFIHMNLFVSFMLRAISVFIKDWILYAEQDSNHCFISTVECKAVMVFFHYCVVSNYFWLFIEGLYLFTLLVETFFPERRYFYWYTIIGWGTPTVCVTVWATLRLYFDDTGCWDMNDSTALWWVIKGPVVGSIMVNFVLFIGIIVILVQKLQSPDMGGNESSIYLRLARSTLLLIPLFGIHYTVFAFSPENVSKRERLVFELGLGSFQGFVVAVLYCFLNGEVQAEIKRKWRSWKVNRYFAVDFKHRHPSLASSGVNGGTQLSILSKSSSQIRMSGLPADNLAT
Experimental: In Vitro cAMP Accumulation
(§1) DMEM:F12 (1:1)medium, incubated
(§2) Serial dilutions of different

human VPAC1 = target: T2, human VPAC1 (Homo sapiens, UniProt P32241); test: cAMP accumulation assay in VPAC1-CHO cells; conditions: for Emax: read-out: VPAC1 EMAX
T2 sequence (P32241 31-457): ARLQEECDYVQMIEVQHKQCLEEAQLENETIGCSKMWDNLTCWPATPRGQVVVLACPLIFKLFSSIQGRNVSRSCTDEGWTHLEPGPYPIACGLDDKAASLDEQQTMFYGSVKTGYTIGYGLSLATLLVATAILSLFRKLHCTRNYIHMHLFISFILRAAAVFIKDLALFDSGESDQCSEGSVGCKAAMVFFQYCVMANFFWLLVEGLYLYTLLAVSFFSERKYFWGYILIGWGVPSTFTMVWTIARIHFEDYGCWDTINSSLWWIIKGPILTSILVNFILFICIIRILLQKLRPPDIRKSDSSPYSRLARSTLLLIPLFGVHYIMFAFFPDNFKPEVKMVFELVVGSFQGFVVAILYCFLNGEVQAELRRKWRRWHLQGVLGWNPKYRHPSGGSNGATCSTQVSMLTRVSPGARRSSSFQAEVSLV

human VPAC2 = target: T3, human VPAC2 (Homo sapiens, UniProt P41587); test: cAMP accumulation assay in VPAC2-CHO cells; type: cell-based
T3 construct: 3xHA (N)
T3 sequence (P41587 24-438): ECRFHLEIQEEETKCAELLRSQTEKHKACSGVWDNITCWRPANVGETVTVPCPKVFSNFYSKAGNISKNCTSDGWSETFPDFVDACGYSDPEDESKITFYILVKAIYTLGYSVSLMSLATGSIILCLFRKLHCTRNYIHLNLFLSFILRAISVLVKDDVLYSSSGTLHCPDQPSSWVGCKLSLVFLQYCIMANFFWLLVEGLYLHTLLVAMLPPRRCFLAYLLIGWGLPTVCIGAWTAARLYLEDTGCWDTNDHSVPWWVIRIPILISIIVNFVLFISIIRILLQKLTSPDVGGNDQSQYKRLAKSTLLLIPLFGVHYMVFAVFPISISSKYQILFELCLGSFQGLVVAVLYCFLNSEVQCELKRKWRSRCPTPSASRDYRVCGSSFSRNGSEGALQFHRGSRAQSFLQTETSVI
Experimental: as §1, §2

[1] = HA-VPAC2-CHO passage #28, 20,000 cells/well, dilutions from 10 uM, single experiment in duplicate, supplement page S13, read-out: VPAC2-CHO EC50(nM), supplement curve fit
[2] = cAMP stimulation, CHO cells stably expressing human VPAC2, 500 μM IBMX, 10 min agonist at 37 °C, Table 3, NC = No convergence, read-out: VPAC2 EC50

Row | Emax (human PAC1) | EC50 (human PAC1) | EC50 (human VPAC1) | Emax (human VPAC1) | Emax (human VPAC2) | EC50 (human VPAC2; [1]) | selectivity for PAC1 over VPAC1 (human PAC1; ratio of cAMP EC50 values (VPAC1/PAC1)) | selectivity for PAC1 over VPAC2 (human PAC1; ratio of cAMP EC50 values (VPAC2/PAC1)) | EC50 (human VPAC2; [2]) | SMILES
1 | 198% | 2.2 nM | 5.2 nM | 42% | 111% | 576 nM |  |  |  | CCC[C@H](NC(=O)[C@H](CCC(N)=O)NC(=O)[C@H](CCCCN)NC(=O)[C@H](CCCNC(=N)N)NC(=O)[C@H](Cc1ccc(O)cc1)NC(=O)[C@H](CCCNC(=N)N)NC(=O)[C@H](CO)NC(=O)[C@H](Cc1ccc(O)cc1)NC(=O)[C@H](CO)NC(=O)[C@H](CC(=O)O)NC(=O)[C@@H](NC(=O)[C@H](Cc1ccccc1)NC(=O)[C@@H](NC(=O)CNC(=O)[C@H](CC(=O)O)NC(=O)[C@H](CO)NC(=O)[C@@H](N)Cc1c[nH]cn1)[C@@H](C)CC)[C@@H](C)O)C(=O)N[C@@H](C)C(=O)N[C@H](C(=O)N[C@@H](CCCCN)C(=O)N[C@@H](CCCCN)C(=O)N[C@@H](Cc1ccc(O)cc1)C(=O)N[C@@H](CC(C)C)C(=O)N[C@@H](CO)C(N)=O)C(C)C [Compound 1]
2 | 181% | 0.64 nM | 37 nM | 104% | 110% | 577 nM | ~ 58 fold | ~ 886 fold |  | CCC[C@H](NC(=O)[C@H](CCC(N)=O)NC(=O)[C@H](CCCCN)NC(=O)[C@H](CCCNC(=N)N)NC(=O)[C@H](Cc1ccc(O)cc1)NC(=O)[C@H](CCCNC(=N)N)NC(=O)[C@H](CO)NC(=O)[C@H](Cc1ccc(O)cc1)NC(=O)[C@H](CO)NC(=O)[C@H](CC(=O)O)NC(=O)[C@@H](NC(=O)[C@H](Cc1ccccc1)NC(=O)[C@@H](NC(=O)CNC(=O)[C@H](CC(=O)O)NC(=O)[C@H](CO)NC(=O)[C@@H](N)Cc1c[nH]cn1)[C@@H](C)CC)[C@@H](C)O)C(=O)N[C@@H](C)C(=O)N[C@H](C(=O)N[C@@H](CCCCN)C(=O)N[C@@H](CCCCN)C(=O)N[C@@H](Cc1ccc(O)cc1)C(=O)N[C@@H](CC(C)C)C(=O)N[C@@H](CO[C@@H]1O[C@H](CO)[C@@H](O)[C@H](O)[C@H]1O)C(N)=O)C(C)C [Compound 2]
3 | 152% | 1.9 nM | 26 nM | 147% | 128% |  |  |  | 7370 nM | CCC[C@H](NC(=O)[C@H](CCC(N)=O)NC(=O)[C@H](CCCCN)NC(=O)[C@H](CCCNC(=N)N)NC(=O)[C@H](Cc1ccc(O)cc1)NC(=O)[C@H](CCCNC(=N)N)NC(=O)[C@H](CO)NC(=O)[C@H](Cc1ccc(O)cc1)NC(=O)[C@H](CO)NC(=O)[C@H](CC(=O)O)NC(=O)[C@@H](NC(=O)[C@H](Cc1ccccc1)NC(=O)[C@@H](NC(=O)CNC(=O)[C@H](CC(=O)O)NC(=O)[C@H](CO)NC(=O)[C@@H](N)Cc1c[nH]cn1)[C@@H](C)CC)[C@@H](C)O)C(=O)N[C@@H](C)C(=O)N[C@H](C(=O)N[C@@H](CCCCN)C(=O)N[C@@H](CCCCN)C(=O)N[C@@H](Cc1ccc(O)cc1)C(=O)N[C@@H](CC(C)C)C(=O)N[C@@H](CO[C@@H]1O[C@H](CO)[C@@H](O)[C@H](O)[C@H]1O)C(=O)N[C@@H](CO[C@@H]1O[C@H](CO)[C@@H](O)[C@H](O)[C@H]1O)C(N)=O)C(C)C [Compound 3]
4 | 174% | 1.8 nM | 21 nM | 118% | 169% |  |  |  | 1940 nM | CCC[C@H](NC(=O)[C@H](CCC(N)=O)NC(=O)[C@H](CCCCN)NC(=O)[C@H](CCCNC(=N)N)NC(=O)[C@H](Cc1ccc(O)cc1)NC(=O)[C@H](CCCNC(=N)N)NC(=O)[C@H](CO)NC(=O)[C@H](Cc1ccc(O)cc1)NC(=O)[C@H](CO)NC(=O)[C@H](CC(=O)O)NC(=O)[C@@H](NC(=O)[C@H](Cc1ccccc1)NC(=O)[C@@H](NC(=O)CNC(=O)[C@H](CC(=O)O)NC(=O)[C@H](CO)NC(=O)[C@@H](N)Cc1c[nH]cn1)[C@@H](C)CC)[C@@H](C)O)C(=O)N[C@@H](C)C(=O)N[C@H](C(=O)N[C@@H](CCCCN)C(=O)N[C@@H](CCCCN)C(=O)N[C@@H](Cc1ccc(O)cc1)C(=O)N[C@@H](CC(C)C)C(=O)N[C@@H](CO[C@@H]1O[C@H](CO)[C@@H](O[C@@H]2O[C@H](CO)[C@H](O)[C@H](O)[C@H]2O)[C@H](O)[C@H]1O)C(N)=O)C(C)C [Compound 4]
5 | 181% | 7 nM | 38 nM | 124% | 139% |  |  |  | 321 nM | CCC[C@H](NC(=O)[C@H](CCC(N)=O)NC(=O)[C@H](CCCCN)NC(=O)[C@H](CCCNC(=N)N)NC(=O)[C@H](Cc1ccc(O)cc1)NC(=O)[C@H](CCCNC(=N)N)NC(=O)[C@H](CO)NC(=O)[C@H](Cc1ccc(O)cc1)NC(=O)[C@H](CO)NC(=O)[C@H](CC(=O)O)NC(=O)[C@@H](NC(=O)[C@H](Cc1ccccc1)NC(=O)[C@@H](NC(=O)[C@H](C)NC(=O)[C@H](CC(=O)O)NC(=O)[C@H](CO)NC(=O)[C@@H](N)Cc1c[nH]cn1)[C@@H](C)CC)[C@@H](C)O)C(=O)N[C@@H](C)C(=O)N[C@H](C(=O)N[C@@H](CCCCN)C(=O)N[C@@H](CCCCN)C(=O)N[C@@H](Cc1ccc(O)cc1)C(=O)N[C@@H](CC(C)C)C(=O)N[C@@H](CO[C@@H]1O[C@H](CO)[C@@H](O[C@@H]2O[C@H](CO)[C@H](O)[C@H](O)[C@H]2O)[C@H](O)[C@H]1O)C(N)=O)C(C)C [Compound 5]
6 | 134% | 67 nM | 195 nM | 107% |  |  |  |  |  | CCC[C@H](NC(=O)[C@H](CCC(N)=O)NC(=O)[C@H](CCCCN)NC(=O)[C@H](CCCNC(=N)N)NC(=O)[C@H](Cc1ccc(O)cc1)NC(=O)[C@H](CCCNC(=N)N)NC(=O)[C@H](CO)NC(=O)[C@H](Cc1ccc(O)cc1)NC(=O)[C@H](CO)NC(=O)[C@H](CC(=O)O)NC(=O)[C@@H](NC(=O)[C@H](Cc1ccccc1)NC(=O)[C@@H](NC(=O)CN(C)C(=O)[C@H](CC(=O)O)NC(=O)[C@H](CO)NC(=O)[C@@H](N)Cc1c[nH]cn1)[C@@H](C)CC)[C@@H](C)O)C(=O)N[C@@H](C)C(=O)N[C@H](C(=O)N[C@@H](CCCCN)C(=O)N[C@@H](CCCCN)C(=O)N[C@@H](Cc1ccc(O)cc1)C(=O)N[C@@H](CC(C)C)C(=O)N[C@@H](CO[C@@H]1O[C@H](CO)[C@@H](O[C@@H]2O[C@H](CO)[C@H](O)[C@H](O)[C@H]2O)[C@H](O)[C@H]1O)C(N)=O)C(C)C [Compound 6] (H-HSD[Sar]IFTDSYSRYRKQ[Nva]AVKKYLS(X1)-NH2)
